Experimental data as given in patent US9975944B2, “Synthetic peptides for the treatment of autoimmune diseases” (TEL HASHOMER MEDICAL RESEARCH INFRASTRUCTURE AND SERVICES …, priority 2013, dated 2018).
Square brackets hold non-standard residues; d marks the D form. Ends that are not written are not given here. Cit = NC(=O)NCCC[C@H](N)C(=O)O

Legend:
pathogenic Th17 cells = assay: Pathogenic Th17 cell proportion in PBMC of RA patients, FACS; format: cell-based, human; conditions: 48 hours
Description: To assess ability of the citrullinated peptides to affect the pathogenic Th17 cells population proportion, peripheral blood mononuclear cells of rheumatoid arthritis patients were cultured in the presence of citrullinated peptides, non-citrullinated peptides and Infliximab for 48 hours. In the last 4 hours phorbol12-myristate 13-acetate (PMA), ionomycin and brefeldin A were added to the culture. Thereafter cells were stained with antibodies against CD3 and IL-17. As shown in FIGS. 7A-7H, significant down-regulation in the mean percentage of pathogenic Th17 cells was detected following incubation with the citrullinated peptides: decrease of 21% (Fil-Cit; E), 5% (β-Fib-Cit; F), and 26% (Cit-ME; G) as compared with the non-citrullinated matched peptides (FIG. 7A-7C, respectively). Mean percentage of pathogenic Th17 cells in the presence of Infliximab was decreased by 48% (FIG. 7H) as compared to medium (FIG. 7D).

CD4+CD25+Foxp3+ T cells = assay: Regulatory T cell proportion in PBMC of RA patients, FACS; format: cell-based, human; conditions: 48 hours
Description: Given the observed immunomodulation of cytokines following incubation of peripheral blood mononuclear cells obtained from rheumatoid arthritis patients with citrullinated peptides, the citrullinated peptides were tested for their ability to exert an effect on the T regulatory population proportion. Peripheral blood mononuclear cells of rheumatoid arthritis patients were cultured in the presence of 1.25 μg/ml of the peptides (Fil-Cit, β-Fib-Cit, and Cit-ME; FIGS. 6A, 6B and 6E, respectively, and Fil-NC, β-Fib-NC and Non-Cit-ME; FIGS. 6C, 6D and 6G, respectively), and Infliximab (FIG. 6F) for 48 hours. Cells cultured with medium devoid of the peptides and Infliximab served as control (FIG. 6H). Thereafter, cells were stained for the expression of CD4, CD25, and FoxP3 and analyzed by FACS. […] Mean percentage of CD4^+CD25^+Foxp3^+ T cells in the presence of Infliximab was increased by 14% as compared to medium (FIG. 6F and FIG. 6H, respectively). Thus, citrullinated peptides are able to induce the expansion of the T regulatory cell population.

TGF-β = TGF-β gene expression in peripheral blood mononuclear cells of RA patients, real-time PCR; format: cell-based, human; conditions: for mean expression levels of TGF-β: PBMC from 6 RA patients, compared with matched non-citrullinated peptide; for TGF-β gene expression level: PBMC of RA patients, 24 h incubation, peptide 0.25 or 1.25 μg/ml, compared with control non-citrullinated peptides
Description: (§1) Citrullinated peptide derived from filaggrin, set forth in SEQ ID NO: 3, (HQCHQESTCitGRSRGRCGRSGS) designated Fil-Cit and citrullinated peptide derived from β-fibrinogen sequence (designated β-Fib-Cit) set forth in SEQ ID NO: 2 (CitPAPPPISGGGYCitACit) were examined for their ability to immunomodulate cytokine expression in peripheral blood mononuclear cells from rheumatoid arthritis patients. Matched non-citrullinated forms of those peptides served as control, and were designated Fil-NC and β-Fib-NC, respectively. All rheumatoid arthritis patients who participated in the study signed an informed consent and the research was approved by the Sheba Helsinki committee (approval No 9247-12-SMC). All procedures were conducted according to good clinical practice (GCP) regulations.
(§2) Peripheral blood mononuclear cells were isolated from blood samples using Ficoll-Paque density gradient centrifugation. The extracted cells were cultivated in the presence of Fil-Cit (0.25 μg/ml or 1.25 μg/ml), β-Fib-Cit (0.25 μg/ml or 1.25 μg/ml) and the control matched peptides. Total RNA was extracted 24 h after incubation with the peptides.
To further investigate the ex vivo effects of the citrullinated peptides on TGF-β expression, peripheral blood mononuclear cells obtained from 6 rheumatoid arthritis patients were cultured in the presence of citrullinated or control peptides. […] Up-regulation was likewise indicated in peripheral blood mononuclear cells incubated with Fil-Cit.

IFN-γ = IFN-γ gene expression in peripheral blood mononuclear cells of RA patients, real-time PCR; format: cell-based, human; conditions: PBMC of RA patients, 24 h incubation, peptide 0.25 or 1.25 μg/ml, compared with control non-citrullinated peptides
Description: as §1, §2

T cells = T cells apoptosis in PBMC of RA patients, annexin V/PI FACS; format: cell-based, human; conditions: 24 hours, gated on PI negative cells
Description: To assess the ability of the citrullinated peptides to affect T cells apoptosis, peripheral blood mononuclear cells of rheumatoid arthritis patients were cultured in the presence of citrullinated, non-citrullinated peptides and Infliximab for 24 hours. Cells were double-stained for annexin V-fluorescein isothiocyanate (FITC) and PI-PE (apoptosis/necrosis markers) and analyzed by FACS. The results in FIG. 8 are presented after gating for PI negative cells (live cells). The β-Fib-Cit and Cit-ME (FIGS. 8A and 8B, respectively) induced T cells apoptosis (by 20% and 18%, respectively) as compared with the non-citrullinated peptides Non-Cit-β-Fib (FIG. 8D) and Non-Cit-ME (FIG. 8E). Infliximab induced apoptosis by 28% (FIG. 8C) as compared with the medium control (FIG. 8F).

TNF-α [1] = assay: TNF-α gene expression in peripheral blood mononuclear cells of RA patients, real-time PCR; format: cell-based, human; conditions: PBMC of RA patients, 24 h incubation, peptide 0.25 or 1.25 μg/ml, compared with control non-citrullinated peptides
Description: as §1, §2

IL-17 = IL-17 gene expression in peripheral blood mononuclear cells of RA patients, real-time PCR; format: cell-based, human; conditions: PBMC of RA patients, 24 h incubation, peptide 0.25 or 1.25 μg/ml, compared with control non-citrullinated peptides
Description: as §1, §2

TNF-α [2] = assay: TNF-α gene expression in mononuclear cells derived from synovial fluid of RA patients, real-time PCR; format: cell-based, human; conditions: compared to medium alone (control)
Description: To assess the effect of the Cit-ME peptide (SEQ ID NO: 1) on inflammatory related genes expression, peripheral blood mononuclear cells derived from synovial fluid rheumatoid arthritis patients were incubated with the Cit-ME multi-epitope citrullinated peptide for 24 h. The effect of the peptide on gene expression was compared also to the effect of infliximab, a TNF-α blocker, which is an antirheumatic drug that acts as an anti-inflammatory compound. […] Results were determined by real-time PCR.

[3] = tested on: CD4+CD25+FoxP3+ regulatory T cells; assay: Regulatory T cells in splenocytes of AIA rats, FACS; format: in vivo, rat
Description: Splenocytes from rats at day 28 post disease induction were stained with anti-CD4-FITC, anti-CD25-APC, and anti-Foxp3-PE (eBioscience) mAbs and analyzed by FACS. In representative outputs as shown in FIG. 12A-C, Regulatory T cells subpopulation was higher in Cit-ME treated rats (9%), compared to 7% and 6.2% in Non-Cit-ME peptide and untreated rats, respectively. Statistical analysis of the results is shown in FIG. 12D (Cit-ME n=9, Non-Cit-ME n=11, untreated rats n=7).

AIA rats [4] = assay: Histological signs of arthritis in ankle joints of AIA rats; format: in vivo, rat; conditions: day 28 post disease induction, H&E, untreated 1.75±0.41
Description: To evaluate the histological signs of arthritis, rats were sacrificed and ankle joints were collected on day 28 post disease induction. The joints were fixed immediately for 24 hours in 4% paraformaldehyde, then decalcified in rapid bone decalcifier (RDO; Apex Engineering, Plainfield, Ill., USA) for 6 hours at room temperature, and further fixed in 4% paraformaldehyde before embedding in paraffin. Sections (5 μm thick) were rehydrated in a graded ethanol series and stained with haematoxylin & eosin (H&E). FIGS. 11A to 11C show representative H&E stained joint tissue sections (magnification ×100). Arrowheads denote the infiltrated zones, scale bar=200 μm. The specimens were scored for severity of inflammation in the synovium, pannus formation, cartilage, and bone erosion. A close correlation between the clinical signs and the histopathological findings was found.

AIA rats [5] = assay: Adjuvant-Induced Arthritis (AIA) in rats, paw swelling and clinical signs; format: in vivo, rat; conditions: AIA rats, 8 subcutaneous injections of 300 μg per rat on alternate days from day 7
[6] = tested on: T cells derived from the spleen; assay: Apoptosis of T cells from the spleen of AIA rats, Annexin V/PI staining; format: in vivo, rat; conditions: gated for PI and CD4+, two independent experiments, control 13±1%
Description: To assess apoptosis of T cells derived from the spleen of treated rats, the Annexin V/PI staining method was preformed. FIGS. 14A-14C are representative histograms of cells treated with Cit-Me (FIG. 14A), non-Cit-Me (FIG. 14B) or untreated (FIG. 14C). The histograms present apoptosis measured by Annexin V^+. First, cells were gated for PI and CD4^+ and next analyzed for percentage of Annexin-V positive cells. […] A significant increase (p<0.01) in the mean apoptotic rate was determined in cells from the spleen of Cit-ME treated rats (19.5±1.8%) in comparison with Non-Cit-ME or control (13.8±1.3% and 13±1%, respectively).

[7] = PMA, ionomycin and brefeldin A in last 4 hours, compared with non-citrullinated matched peptide
[8] = 1.25 μg/ml peptide, compared with non-citrullinated matched peptide

Row | Substance | decrease in mean percentage of pathogenic Th17 cells (pathogenic Th17 cells; [7]) [%] | increase in mean percentage of CD4+CD25+Foxp3+ T cells (CD4+CD25+Foxp3+ T cells; [8]) [%] | mean expression levels of TGF-β (TGF-β) | TGF-β gene expression level (TGF-β) | IFN-γ gene expression level (IFN-γ) | induction of T cells apoptosis (T cells; compared with matched non-citrullinated peptide) [%] | TNF-α gene expression level (TNF-α [1]) | IL-17 gene expression level (IL-17) | decrease in mean percentage of pathogenic Th17 cells (pathogenic Th17 cells; compared to medium) [%] | increase in mean percentage of CD4+CD25+Foxp3+ T cells (CD4+CD25+Foxp3+ T cells; compared to medium) [%] | induction of apoptosis (T cells; compared with the medium control) [%] | expression level of TNF-α (TNF-α [2]) | percentage of CD4+CD25+FoxP3+ regulatory T cells subset, statistical analysis ([3]; spleens of AIA rats, day 28, untreated 7.17±0.31) [%] | Regulatory T cells subpopulation, representative outputs ([3]; splenocytes of AIA rats, day 28 post disease induction, untreated 6.2%) [%] | histological inflammatory score (AIA rats [4]) | clinical score post immunization (AIA rats [5]) | mean apoptotic rate (Annexin-V positive cells) [6] [%]
1 | CitPAPPPISGGGYCitACit ([Cit]PAPPPISGGGY[Cit]A[Cit]) [β-Fib-Cit] | 5 | 50 | significantly up-regulated | significantly up-regulated | down-regulated | 20 | down-regulated | down-regulated |  |  |  |  |  |  |  |  | 
2 | HQCHQESTCitGRSRGRCGRSGS (HQCHQEST[Cit]GRSRGRCGRSGS; cysteine pairing not given here) [Fil-Cit, citrullinated peptide derived from filaggrin] | 21 | 56 | Up-regulation | significantly up-regulated | down-regulated |  | down-regulated | down-regulated |  |  |  |  |  |  |  |  | 
3 | Infliximab: a TNF-α blocker, an antirheumatic drug that acts as an anti-inflammatory compound [reference compound] |  |  |  |  |  |  |  |  | 48 | 14 | 28 | downregulated |  |  |  |  | 
4 | VRLRSSVESTRGRSRPAPPPARGLT [Non-Cit-ME] |  |  |  |  |  |  |  |  |  |  |  |  | 6.97±0.22 | 7 | 1.28±0.6 | Reduction in clinical score | 13.8±1.3
